A word on the EC50: it is the concentration giving half of the maximal effect.

Test [1] relates to H1975 (EGFR T790M/L858R) cell proliferation. Nature of the test: H1975 proliferation assay (Cell Titer-Glo). It counts as cell-based. Particulars: Homo sapiens, NCI-H1975, 72 h, NCI-H1975 cells, 72 hour incubation, read-out: H1975 antiproliferative EC50. Here is the method: H1975 Proliferation Assays
All cell culture reagents were purchased from Invitrogen/Gibco. Cells are cultured at 37° C. at 5% CO2 and split as recommended by ATCC.

Test [2] concerns the target T1, phosphor-EGFR in H1975(L585R/T790M) mutant EGFR expressing cells (Homo sapiens, UniProt P00533, L858R/T790M).
T1 construct: host or cells: NCI-H1975
Briefly: H1975 pEGFR MSD cellular assay. The format is cell-based. Particulars: NCI-H1975 cells, serum starved, 1 hour compound incubation, pEGFR Tyr1068 MSD; read-out: HI975 pEGFR EC50. The method in brief:
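Phospho-EGFR read by MSD electrochemiluminescence: capture with anti-pEGFR antibody (overnight, 4° C), detection with SULFO-TAG anti-total EGFR (1 hour, room temperature). Before lysis, H1975 cells starved of serum overnight got compound for 1 hour at 37° C, 0.5% DMSO final. EC50 via four-parameter logistic regression of percent inhibition.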

The target in the next test is T2, EGFR del746-750 T790M (Homo sapiens, UniProt P00533, DEL746-750/T790M).
T2 construct: purchased Carna Biosciences 08-528
Nature of the test: EGFR del746-750 T790M biochemical assay (Caliper mobility shift). Particulars: 5 μM ATP; apparent Ki (Morrison fit) converted by Cheng-Prusoff, Km of ATP 2.1 μM; read-out: EGFR(T790M/d746-750) Ki. Here is the method: The exemplified compounds described herein were tested according to the assay below. The enzyme data reported in Tables 4-5 is generally a representative of multiple experiments.
Reactions proceed for 30 minutes at room temperature (22° C.) and are terminated with 80 mM 2,2′,2″,2″′-(ethane-1,2-diyldinitrilo)tetraacetic acid (EDTA). Product is detected using the Caliper mobility shift detection method where product and substrate are electrophoretically separated and measured.

A further test concerns the target T3, EGFR T790M L858R (Homo sapiens, UniProt P00533, L858R/T790M).
T3 construct: purchased Life Technologies PV4879
Briefly: EGFR T790M L858R biochemical assay (Caliper mobility shift). Particulars: 5 μM ATP; apparent Ki (Morrison fit) converted by Cheng-Prusoff, Km of ATP 1.3 μM. The method, boiled down: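 Caliper mobility-shift read-out, electrophoretic separation of substrate from product, after a 30-minute kinase reaction at 22 °C. EDTA at 80 mM terminates each reaction.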

T1 sequence (P00533 25-1210 T790M/L858R): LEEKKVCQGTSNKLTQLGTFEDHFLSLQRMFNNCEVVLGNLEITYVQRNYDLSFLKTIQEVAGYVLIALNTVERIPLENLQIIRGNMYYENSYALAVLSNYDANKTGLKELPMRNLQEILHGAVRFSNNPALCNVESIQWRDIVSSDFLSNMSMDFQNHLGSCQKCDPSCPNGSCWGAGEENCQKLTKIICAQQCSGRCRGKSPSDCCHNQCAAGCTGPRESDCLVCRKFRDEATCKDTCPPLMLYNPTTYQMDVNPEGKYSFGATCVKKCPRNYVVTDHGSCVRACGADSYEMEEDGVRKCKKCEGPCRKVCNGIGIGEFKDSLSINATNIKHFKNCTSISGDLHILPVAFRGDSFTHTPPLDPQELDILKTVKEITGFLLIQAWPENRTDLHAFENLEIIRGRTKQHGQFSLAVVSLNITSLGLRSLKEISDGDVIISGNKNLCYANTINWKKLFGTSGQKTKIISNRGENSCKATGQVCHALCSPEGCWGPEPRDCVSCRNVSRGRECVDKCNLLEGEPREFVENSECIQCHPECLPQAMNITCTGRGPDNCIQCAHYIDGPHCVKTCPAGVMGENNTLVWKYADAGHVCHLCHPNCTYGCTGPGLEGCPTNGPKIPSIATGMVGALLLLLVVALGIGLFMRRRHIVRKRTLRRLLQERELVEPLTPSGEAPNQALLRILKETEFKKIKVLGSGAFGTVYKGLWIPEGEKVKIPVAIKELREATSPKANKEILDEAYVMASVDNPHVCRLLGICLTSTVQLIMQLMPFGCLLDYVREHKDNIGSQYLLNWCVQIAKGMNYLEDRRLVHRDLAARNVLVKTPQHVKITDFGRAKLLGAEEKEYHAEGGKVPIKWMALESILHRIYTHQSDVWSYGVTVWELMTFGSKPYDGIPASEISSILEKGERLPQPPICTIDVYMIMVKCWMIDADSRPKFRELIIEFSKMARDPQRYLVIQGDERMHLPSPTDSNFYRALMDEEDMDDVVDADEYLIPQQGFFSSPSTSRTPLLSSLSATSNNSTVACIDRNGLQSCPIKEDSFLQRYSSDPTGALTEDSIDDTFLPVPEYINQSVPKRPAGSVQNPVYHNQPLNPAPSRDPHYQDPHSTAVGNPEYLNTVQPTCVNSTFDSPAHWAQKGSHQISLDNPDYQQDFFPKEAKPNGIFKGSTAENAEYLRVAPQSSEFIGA
T3 sequence (P00533 25-1210 T790M/L858R): as above
T2 sequence (P00533 with tags, fused parts or gaps DEL746-750/T790M limits assumed): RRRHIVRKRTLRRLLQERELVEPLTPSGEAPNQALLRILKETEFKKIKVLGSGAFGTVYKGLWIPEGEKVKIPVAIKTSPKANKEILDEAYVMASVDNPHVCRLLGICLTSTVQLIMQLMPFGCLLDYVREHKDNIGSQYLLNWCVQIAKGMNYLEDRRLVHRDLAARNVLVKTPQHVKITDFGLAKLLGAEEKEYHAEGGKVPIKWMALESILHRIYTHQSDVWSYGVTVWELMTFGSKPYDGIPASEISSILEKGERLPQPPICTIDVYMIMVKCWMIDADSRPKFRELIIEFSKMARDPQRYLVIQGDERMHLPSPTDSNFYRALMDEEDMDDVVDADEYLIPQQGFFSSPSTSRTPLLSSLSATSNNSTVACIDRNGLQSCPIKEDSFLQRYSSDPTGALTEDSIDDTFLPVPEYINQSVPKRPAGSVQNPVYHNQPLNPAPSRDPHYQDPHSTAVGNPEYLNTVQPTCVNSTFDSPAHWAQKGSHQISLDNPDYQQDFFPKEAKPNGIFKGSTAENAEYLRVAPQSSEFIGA

On to `CCC(C)n1nc(N2CCNC2=O)c2cnc(Nc3ccnc(N4CCC(S(C)(=O)=O)CC4)n3)cc21` (racemic) [Example 102, 1-{1-sec-Butyl-6-[2-(4-methanesulfonylpiperidin-1-yl)pyrimidin-4-ylamino]-1H-pyrazolo[4,3-c]pyridin-3-yl}imidazolidin-2-one], for which the figures for the EC50 in test [1] and in test [2] were 1150 nM and 710 nM, respectively. Also, the values for the Ki at EGFR del746-750 T790M and on EGFR T790M L858R were 12.4 nM and 2.2 nM, respectively.
Take `CC(C)n1nc(N2CC(C(C)(C)C#N)C2)c2cnc(Nc3ccnc(-c4cnn(S(=O)(=O)C5CC5)c4)n3)cc21` [Example 153, 2-(1-(6-(2-(1-(Cyclopropylsulfonyl)-1H-pyrazol-4-yl)pyrimidin-4-ylamino)-1-isopropyl-1H-pyrazolo[4,3-c]pyridin-3-yl)azetidin-3-yl)-2-methylpropanenitrile]: the EC50 was 1380 nM in test [1] and 133 nM in test [2]. For the same compound, the Ki at EGFR del746-750 T790M is 1.9 nM; at EGFR T790M L858R, 2.1 nM.
Taken in the same sequence, the figures for `CC[C@H](C)n1nc(N2CC(C(C)(C)O)C2)c2cnc(Nc3ccnc(N4CC[C@@H](O)[C@@H](F)C4)n3)cc21` (relative stereo) [Example 194, (3S,4R)-1-(4-((1-((S*)-sec-Butyl)-3-(3-(2-hydroxypropan-2-yl)azetidin-1-yl)-1H-pyrazolo[4,3-c]pyridin-6-yl)amino)pyrimidin-2-yl)-3-fluoropiperidin-4-ol] were 429 nM, 171 nM, 3.5 nM and 1.5 nM.
Taken in the same sequence, the figures for `CC(C)n1nc(N2CCC(C)(O)C2)c2cnc(Nc3ccnc(N4CC[C@@H](O)[C@@H](F)C4)n3)cc21` (relative stereo) [Example 104, (3S*,4R*)-3-fluoro-1-(4-((3-(3-hydroxy-3-methylpyrrolidin-1-yl)-1-isopropyl-1H-pyrazolo[4,3-c]pyridin-6-yl)amino)pyrimidin-2-yl)piperidin-4-ol] were 404 nM, 71.6 nM, 1.9 nM and 1.6 nM.
With `CC(C)n1nc(N2CC(O)C2)c2cnc(Nc3ccnc(-c4cnn(S(=O)(=O)C5CC5)c4)n3)cc21` [Example 37, 1-(6-(2-(1-(cyclopropylsulfonyl)-1H-pyrazol-4-yl)pyrimidin-4-ylamino)-1-isopropyl-1H-pyrazolo[4,3-c]pyridin-3-yl)azetidin-3-ol], the EC50 was 1120 nM in test [1] and 91.7 nM in test [2]. Besides, the Ki at EGFR del746-750 T790M was found to be 0.8 nM; at EGFR T790M L858R, 1.4 nM.
As for `CC(C)n1nc(NC2CNC(=O)C2)c2cnc(Nc3ccnc(N4CCC(C)(O)CC4)n3)cc21` (stereo not drawn) [Example 77, 4-(6-(2-(4-Hydroxy-4-methylpiperidin-1-yl)pyrimidin-4-ylamino)-1-isopropyl-1H-pyrazolo[4,3-c]pyridin-3-ylamino)pyrrolidin-2-one], the EC50 in test [1] is greater than 10000 nM. The Ki stood at 29.2 nM at EGFR del746-750 T790M and 18.7 nM on EGFR T790M L858R.
With `CC(C)n1nc(N2CCS(=N)(=O)CC2)c2cnc(Nc3ccnc(-c4cnn(S(=O)(=O)C5CC5)c4)n3)cc21` [Example 111, 4-(6-((2-(1-(Cyclopropylsulfonyl)-1H-pyrazol-4-yl)pyrimidin-4-yl)amino)-1-isopropyl-1H-pyrazolo[4,3-c]pyridin-3-yl)-1-iminothiomorpholine 1-oxide], the figures for the EC50 in test [1] and in test [2] were 949 nM and 560 nM, respectively. Further, the Ki at EGFR del746-750 T790M came to 1 nM; at EGFR T790M L858R, 1.7 nM.
`CCC(=O)N1CCN(c2nn(C(C)C)c3cc(Nc4ccnc(N5CCC(C)(O)CC5)n4)ncc23)CC1` [Example 134, 1-(4-(6-(2-(4-Hydroxy-4-methylpiperidin-1-yl)pyrimidin-4-ylamino)-1-isopropyl-1H-pyrazolo[4,3-c]pyridin-3-yl)piperazin-1-yl)propan-1-one]: the Ki on EGFR del746-750 T790M turned out to be 33.7 nM; on EGFR T790M L858R, 11.5 nM.
The like results for `CC[C@H](C)n1nc(N2CC[C@@H](O)C2)c2cnc(Nc3ccnc(N4CC[C@](C)(C(N)=O)C4)n3)cc21` (relative stereo) [Example 209, (S*)-1-(4-((1-((S*)-sec-Butyl)-3-((R)-3-hydroxypyrrolidin-1-yl)-1H-pyrazolo[4,3-c]pyridin-6-yl)amino)pyrimidin-2-yl)-3-methylpyrrolidine-3-carboxamide] were, in that order, 111 nM and 143 nM.
As for `CC1COCC(C)N1c1nn(C(C)C)c2cc(Nc3ccnc(-c4cnn(S(=O)(=O)C5CC5)c4)n3)ncc12` (stereo not drawn) [Example 180, N-(2-(1-(Cyclopropylsulfonyl)-1H-pyrazol-4-yl)pyrimidin-4-yl)-3-(3,5-dimethylmorpholino)-1-isopropyl-1H-pyrazolo[4,3-c]pyridin-6-amine], the EC50 in test [1] was greater than 10000 nM. Moreover, the Ki at EGFR del746-750 T790M is 201 nM; at EGFR T790M L858R it was 302 nM.
In the case of `CC(C)n1nc(N2CCN(C(=O)C(C)(C)O)CC2)c2cnc(Nc3ccnc(N4CCC(C)(O)CC4)n3)cc21` [Example 78, 2-Hydroxy-1-(4-(6-(2-(4-hydroxy-4-methylpiperidin-1-yl)pyrimidin-4-ylamino)-1-isopropyl-1H-pyrazolo[4,3-c]pyridin-3-yl)piperazin-1-yl)-2-methylpropan-1-one], the figures for the Ki at EGFR del746-750 T790M and on EGFR T790M L858R were 75.5 nM and 21.5 nM, respectively.
Taken in the same sequence, the figures for `CC(C)n1nc(C2(C)CCCO2)c2cnc(Nc3ccnc(N4CCC(C)(O)CC4)n3)cc21` (stereo not drawn) [Example 94, 1-(4-(1-Isopropyl-3-(2-methyltetrahydrofuran-2-yl)-1H-pyrazolo[4,3-c]pyridin-6-ylamino)pyrimidin-2-yl)-4-methylpiperidin-4-ol] were greater than 2900 nM and 872 nM.
Taken in the same sequence, the figures for `CC(C)n1nc(N2CCN(C(=O)CO)CC2)c2cnc(Nc3ccnc(N4CCC(C)(O)CC4)n3)cc21` [Example 135, 2-Hydroxy-1-(4-(6-(2-(4-hydroxy-4-methylpiperidin-1-yl)pyrimidin-4-ylamino)-1-isopropyl-1H-pyrazolo[4,3-c]pyridin-3-yl)piperazin-1-yl)ethanone] were 46.3 nM and 10.3 nM.
Taken in the same sequence, the figures for `CC(C)n1nc(C#N)c2cnc(Nc3ccnc(-c4cnn(S(=O)(=O)C5CC5)c4)n3)cc21` [Example 93, 6-(2-(1-(Cyclopropylsulfonyl)-1H-pyrazol-4-yl)pyrimidin-4-ylamino)-1-isopropyl-1H-pyrazolo[4,3-c]pyridine-3-carbonitrile] were 65.4 nM and 110 nM.
Turning to `CC(C)n1nc(C2=NC(C)(C)NC2=O)c2cnc(Nc3ccnc(N4CCC(C)(O)CC4)n3)cc21` [Example 95, 4-(6-(2-(4-Hydroxy-4-methylpiperidin-1-yl)pyrimidin-4-ylamino)-1-isopropyl-1H-pyrazolo[4,3-c]pyridin-3-yl)-2,2-dimethyl-1,2-dihydroimidazol-5-one], the Ki at EGFR del746-750 T790M worked out at 59.5 nM; on EGFR T790M L858R it was 15.2 nM.
Consider `CCC(C)n1nc(N2CC[C@H](O)C2=O)c2cnc(Nc3ccnc(N4CC[C@@H](O)[C@@H](F)C4)n3)cc21` (stereo partly drawn) [Example 201, (3S)-1-(1-(sec-Butyl)-6-((2-((3S,4R)-3-fluoro-4-hydroxypiperidin-1-yl)pyrimidin-4-yl)amino)-1H-pyrazolo[4,3-c]pyridin-3-yl)-3-hydroxypyrrolidin-2-one], for which the half-maximal effective concentration (EC50) in test [1] is greater than 10000 nM. In addition, the Ki at EGFR del746-750 T790M amounted to 14 nM; on EGFR T790M L858R, 5.8 nM.
On to `CC(C)n1nc(N2CCC(C(N)=O)C2)c2cnc(Nc3ccnc(-c4cnn(S(=O)(=O)C5CC5)c4)n3)cc21` (stereo not drawn) [Example 60, 1-(6-(2-(1-(cyclopropylsulfonyl)-1H-pyrazol-4-yl)pyrimidin-4-ylamino)-1-isopropyl-1H-pyrazolo[4,3-c]pyridin-3-yl)pyrrolidine-3-carboxamide], for which the results for the EC50 in test [1] and in test [2] were 608 nM and 28.2 nM, respectively. Further, the Ki at EGFR del746-750 T790M is 0.5 nM.
As for `CC(C)n1nc(NC(C)(C)C(N)=O)c2cnc(Nc3ccnc(N4CC[C@H](O)[C@H](F)C4)n3)cc21` (racemic) [Example 182, (±)-2-(6-(2-(cis-3-Fluoro-4-hydroxypiperidin-1-yl)pyrimidin-4-ylamino)-1-isopropyl-1H-pyrazolo[4,3-c]pyridin-3-ylamino)-2-methylpropanamide], the Ki was determined as 1150 nM at EGFR del746-750 T790M and 377 nM on EGFR T790M L858R.
Taken in the same sequence, the figures for `CC(O)C(=O)N1CCN(c2nn(C(C)C)c3cc(Nc4ccnc(N5CCC(C)(O)CC5)n4)ncc23)CC1` (stereo not drawn) [Example 136, 2-Hydroxy-1-(4-(6-(2-(4-hydroxy-4-methylpiperidin-1-yl)pyrimidin-4-ylamino)-1-isopropyl-1H-pyrazolo[4,3-c]pyridin-3-yl)piperazin-1-yl)propan-1-one] were 39.9 nM and 10.6 nM.

For the origin of these results see patent publication US9951064B2, “Azaindazole compounds as inhibitors of T790M containing EGFR mutants” (Genentech, Inc., priority 2013, dated 2018).
